# Measured values published in patent US20120220581A1, “IMIDAZO[1,2-b]PYRIDAZINE DERIVATIVES AND THEIR USE AS PDE10 INHIBITORS” (Janssen-Cilag, S.A., priority 2009, published 2012).
# What was measured:
# PDE5A3 = PDE5A3 (Homo sapiens, UniProt O76074); assay: In vitro PDE selectivity assay (SPA), PDE5A3; format: biochemical; conditions: hPDE5A3; read-out: PDE 5A3 (expressed as pIC50) (converted)
# Procedure, shortened: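 Inhibition of each PDE isoform was measured by scintillation proximity assay with ³H-cyclic nucleotide substrate, using incubation buffer, substrate concentration, incubation time and stop solution adapted per isoform. Compounds were tested in dose-response against 1% DMSO controls and enzyme-free blanks. IC50 came from a least-squares fit of blank-subtracted % of control versus concentration.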
# [1] = test system: apomorphine-induced stereotypy in rats; assay: Apomorphine-induced stereotypy in rats (APO); format: in vivo; conditions: Rattus norvegicus; dose at which 50% of the tested animals show the effect; ≧: active in 30% of the animals at the indicated dose; ≦: active in 60%
# Protocol: Apomorphine (1.0 mg/kg, i.v.)-induced stereotypy (compulsive sniffing, licking, chewing) was scored every 5 min over the first hour after injection of apomorphine, following a 1 hour interval pre-treatment with the test compound. The score system was: (3) pronounced, (2) moderate, (1) slight, and (0) absent.
# [2] = test system: PCP-induced hyperlocomotion in rats; assay: PCP-induced hyperlocomotion in rats; format: in vivo; conditions: Rattus norvegicus
# Protocol: Motor activity [horizontal activity (locomotion) and vertical activity (rearing)] was recorded in male Wiga rats (body weight: 175-275 g; housed overnight in groups of 7 rats) using microprocessor-based activity monitors (MED Associates; length×width×height: 43.2×43.2×41.5 cm) over a period of 30 min. The resolution of the system was set at 100 msec. Total distance was defined as the distance traveled, measured by changes in the number or location of interrupted xy-beams (located in two arrays of 32 infrared light beams (1.25 cm apart) perpendicular to each other in a horizontal plane 2.0 cm above the floor). Vertical activity was defined as the number of periods of continuous breaks reported by an infrared array of 32 light beams in a horizontal plane 13 cm above the floor. The intensity of the light within the activity meters (measured in the centre at floor level) ranged between 110 and 130 LUX.
# Male Wiga rats (200 to 260 g) were pretreated with test compound or solvent (10 ml/kg, s.c.) and placed in individual cages. At a predefined interval thereafter (60 min.), the rats were challenged with PCP (1.25 mg/kg, i.v.) and motor activity was measured over a period of 30 min starting immediately after the PCP challenge. […]
# [3] = test system: conditioned avoidance response in rats; assay: Conditioned avoidance response (CAR) test; format: in vivo; conditions: Rattus norvegicus
# Description: The apparatus consisted of an inner box surrounded by an outer box. The inner box was composed of four walls of transparent, synthetic material (length×width×height: 30×30×30 cm), an open top, and a grid floor made of 15 pairs of iron bars (2 mm diameter; 6 mm inter-bar distance). Odd and even bars were connected with a source of alternative current (1.0 mA; Coulbourn Instruments Solid State Shocker/Distributor), which could be interrupted by a switch. The outer box was composed of the same material (length×width×height: 40×40×36 cm), also with an open top, with a distance of 5 cm between the inner and outer box on all sides. To decrease the amount of environmental stimuli, three walls of the outer box were made non-transparent. The front wall was left transparent to allow the necessary inspection of the animal during the test. The upper edge of the outer and inner box served as a target for the rats on which to jump with fore- and hind-paws, respectively.
# From their arrival in the laboratory on the experimental day, male Wiga Wistar rats (230±30 g) were housed in individual cages provided with bedding material.
# The rats were tested 3 times, i.e. at 60, 90 and 120 min after the injection of test compound or solvent. Latency to avoidance was recorded. The median avoidance response obtained over the three experimental sessions for each rat were used for further calculations.
# [4] = test system: SCH-23390-induced hypolocomotion in mice; assay: SCH-23390-induced hypolocomotion in mice; format: in vivo; conditions: Mus musculus
# Protocol: SCH-23390 (0.08 mg/kg, i.v.)-induced hypolocomotion was evaluated over a 30-min period starting immediately after the SCH-23390 challenge in male NMRI mice pretreated 0.5 h earlier with test compound or solvent. Averaged activity in solvent-treated control mice was 1540±559 counts (mean±SD; n=103). Criterion for drug-induced reversal of the SCH-23390-induced hypolocomotion: total distance: >2500 counts (2.9% false positives in controls).
Structure (SMILES),IC50 (PDE5A3),ED50 [1],ED50 [2],ED50 [3],ED50 [4]
"COCCOc1ccc(-c2c(C)nc3c(-c4ccncc4)ccnn23)cn1 [compound 21, 3-[6-(2-methoxyethoxy)-3-pyridinyl]-2-methyl-8-(4-pyridinyl)-imidazo[1,2-b]pyridazine]",19.1 µM,1.5 mg/kg,6.1 mg/kg,5.4 mg/kg,5 mg/kg
"COCCc1ccc(-c2c(C)nc3c(N4CCOCC4)ccnn23)cn1 [compound 1, 3-[6-(2-methoxyethyl)-3-pyridinyl]-2-methyl-8-(4-morpholinyl)-imidazo[1,2-b]pyridazine]",17 µM,1.3 mg/kg,2 mg/kg,4.7 mg/kg,7.1 mg/kg
